Experimental data taken from ChEMBL document CHEMBL5212743, “Selectivity Literature for EUbOPEN Chemogenomics Library wave 3” (2023).
Values belong to the compound of their own block, whether it stands above or below them.

Experiments:
[1] = molecular target: Cyclin-dependent kinase-like 2 (Homo sapiens) (UniProt Q92772); assay: Selectivity interaction (KinomeScan (DiscoverX)) EUB0000240b CDKL2; conditions: at 1 µM
[2] = molecular target: Dual specificity protein kinase CLK4 (Homo sapiens) (UniProt Q9HAZ1); assay: Selectivity interaction (KinomeScan (DiscoverX)) EUB0000347a CLK4; conditions: at 1 µM
[3] = molecular target: Cyclin-dependent kinase 5 (Homo sapiens) (UniProt Q00535); assay: Selectivity interaction (KinomeScan (DiscoverX)) EUB0000347a CDK5; conditions: at 1 µM
[4] = molecular target: 5'-AMP-activated protein kinase catalytic subunit alpha-1 (Homo sapiens, UniProt Q13131); assay: Selectivity interaction (KinomeScan (DiscoverX)) EUB0000347a PRKAA1; conditions: at 1 µM
Chain of 5'-AMP-activated protein kinase catalytic subunit alpha-1 (Q13131 whole entry, looked up): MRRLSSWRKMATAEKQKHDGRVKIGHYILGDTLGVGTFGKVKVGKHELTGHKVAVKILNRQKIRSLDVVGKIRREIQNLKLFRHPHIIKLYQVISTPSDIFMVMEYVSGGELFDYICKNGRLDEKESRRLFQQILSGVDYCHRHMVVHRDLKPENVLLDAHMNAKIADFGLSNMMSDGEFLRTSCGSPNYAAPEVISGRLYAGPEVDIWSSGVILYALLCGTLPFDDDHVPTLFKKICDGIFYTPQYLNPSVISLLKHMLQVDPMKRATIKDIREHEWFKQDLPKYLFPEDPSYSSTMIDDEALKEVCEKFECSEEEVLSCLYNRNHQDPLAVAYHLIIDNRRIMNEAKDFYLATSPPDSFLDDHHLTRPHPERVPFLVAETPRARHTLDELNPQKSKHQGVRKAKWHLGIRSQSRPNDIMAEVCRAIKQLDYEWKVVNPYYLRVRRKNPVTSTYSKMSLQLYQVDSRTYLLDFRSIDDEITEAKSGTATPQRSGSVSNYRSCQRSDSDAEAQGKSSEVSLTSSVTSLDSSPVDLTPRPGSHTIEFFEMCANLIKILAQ

[5] = molecular target: T1, Mitogen-activated protein kinase kinase kinase 13 (Homo sapiens) (UniProt O43283); assay: Selectivity interaction (KinomeScan (DiscoverX)) EUB0000347a MAP3K13; conditions: at 1 µM
T1 sequence (whole entry): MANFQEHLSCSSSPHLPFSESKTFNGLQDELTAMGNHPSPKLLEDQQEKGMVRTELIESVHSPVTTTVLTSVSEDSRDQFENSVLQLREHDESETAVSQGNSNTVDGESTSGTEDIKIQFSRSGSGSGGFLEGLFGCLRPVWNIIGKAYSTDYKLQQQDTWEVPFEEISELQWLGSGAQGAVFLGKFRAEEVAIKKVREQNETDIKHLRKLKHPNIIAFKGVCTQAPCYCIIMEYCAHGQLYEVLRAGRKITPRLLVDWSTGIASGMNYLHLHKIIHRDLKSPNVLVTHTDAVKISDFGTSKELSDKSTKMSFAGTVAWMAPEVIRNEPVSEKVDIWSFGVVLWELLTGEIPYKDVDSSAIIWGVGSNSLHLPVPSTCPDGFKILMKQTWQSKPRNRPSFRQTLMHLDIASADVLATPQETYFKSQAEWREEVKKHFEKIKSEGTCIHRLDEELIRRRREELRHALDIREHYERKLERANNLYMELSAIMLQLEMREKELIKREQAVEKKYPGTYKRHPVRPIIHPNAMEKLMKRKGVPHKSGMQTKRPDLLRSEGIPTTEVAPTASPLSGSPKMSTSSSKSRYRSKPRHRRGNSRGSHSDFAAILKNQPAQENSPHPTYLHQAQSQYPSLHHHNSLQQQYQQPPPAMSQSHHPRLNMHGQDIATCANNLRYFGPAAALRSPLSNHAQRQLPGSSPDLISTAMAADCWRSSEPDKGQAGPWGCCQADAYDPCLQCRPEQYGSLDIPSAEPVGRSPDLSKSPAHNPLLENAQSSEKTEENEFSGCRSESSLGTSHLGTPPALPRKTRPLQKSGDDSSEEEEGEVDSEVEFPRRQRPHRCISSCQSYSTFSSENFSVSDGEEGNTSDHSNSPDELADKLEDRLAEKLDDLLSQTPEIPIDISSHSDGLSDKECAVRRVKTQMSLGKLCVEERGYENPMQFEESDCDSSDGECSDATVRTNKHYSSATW

[6] = molecular target: Sodium-dependent dopamine transporter (Homo sapiens, UniProt Q01959); assay: Selectivity interaction (GPCR panel (PDSP screen)) EUB0000294b SLC6A3; conditions: at 10 µM
[7] = molecular target: T2, Serine/threonine-protein kinase LATS1 (Homo sapiens) (UniProt O95835); assay: Selectivity interaction (KinomeScan (DiscoverX)) EUB0000294b LATS1; conditions: at 1 µM
T2 sequence (whole entry): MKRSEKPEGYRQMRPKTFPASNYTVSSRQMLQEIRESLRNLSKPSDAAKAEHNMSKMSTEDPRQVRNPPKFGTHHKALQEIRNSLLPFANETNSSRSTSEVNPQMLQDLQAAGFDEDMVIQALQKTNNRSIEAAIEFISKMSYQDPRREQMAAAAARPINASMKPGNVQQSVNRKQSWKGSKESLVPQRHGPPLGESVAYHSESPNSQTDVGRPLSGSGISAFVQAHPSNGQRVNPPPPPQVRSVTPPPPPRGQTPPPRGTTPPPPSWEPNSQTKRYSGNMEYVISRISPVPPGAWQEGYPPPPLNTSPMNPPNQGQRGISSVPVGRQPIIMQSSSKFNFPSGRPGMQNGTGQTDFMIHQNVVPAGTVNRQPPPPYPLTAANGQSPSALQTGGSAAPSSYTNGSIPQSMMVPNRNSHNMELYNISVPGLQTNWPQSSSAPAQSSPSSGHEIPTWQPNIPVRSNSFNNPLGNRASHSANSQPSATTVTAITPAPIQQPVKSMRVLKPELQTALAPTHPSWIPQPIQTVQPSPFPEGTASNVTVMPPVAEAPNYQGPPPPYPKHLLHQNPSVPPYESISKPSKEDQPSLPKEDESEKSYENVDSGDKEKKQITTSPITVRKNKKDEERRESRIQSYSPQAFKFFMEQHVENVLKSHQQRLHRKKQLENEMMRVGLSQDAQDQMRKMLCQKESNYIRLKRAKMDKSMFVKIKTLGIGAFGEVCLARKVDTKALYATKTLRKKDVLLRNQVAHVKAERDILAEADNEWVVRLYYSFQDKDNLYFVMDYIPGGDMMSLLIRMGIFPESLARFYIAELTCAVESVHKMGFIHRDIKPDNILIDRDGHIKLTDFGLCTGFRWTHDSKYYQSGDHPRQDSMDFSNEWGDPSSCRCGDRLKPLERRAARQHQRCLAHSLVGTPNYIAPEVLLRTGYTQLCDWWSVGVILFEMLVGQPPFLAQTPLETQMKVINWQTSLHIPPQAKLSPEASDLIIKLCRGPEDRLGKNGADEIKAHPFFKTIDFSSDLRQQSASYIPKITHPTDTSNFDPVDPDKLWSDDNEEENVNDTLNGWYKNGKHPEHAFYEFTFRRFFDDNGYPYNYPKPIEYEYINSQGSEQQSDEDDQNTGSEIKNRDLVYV

Nischarin (Homo sapiens) = Nischarin (Homo sapiens) (UniProt Q9Y2I1); assay: Selectivity interaction (MDS Pharma Service panel (GPCR, ion channels, receptors, and other enzymes, radioligand binding assays)) EUB0000294b NISCH; conditions: at 10 µM
Chain of Nischarin (Homo sapiens) (Q9Y2I1 whole entry): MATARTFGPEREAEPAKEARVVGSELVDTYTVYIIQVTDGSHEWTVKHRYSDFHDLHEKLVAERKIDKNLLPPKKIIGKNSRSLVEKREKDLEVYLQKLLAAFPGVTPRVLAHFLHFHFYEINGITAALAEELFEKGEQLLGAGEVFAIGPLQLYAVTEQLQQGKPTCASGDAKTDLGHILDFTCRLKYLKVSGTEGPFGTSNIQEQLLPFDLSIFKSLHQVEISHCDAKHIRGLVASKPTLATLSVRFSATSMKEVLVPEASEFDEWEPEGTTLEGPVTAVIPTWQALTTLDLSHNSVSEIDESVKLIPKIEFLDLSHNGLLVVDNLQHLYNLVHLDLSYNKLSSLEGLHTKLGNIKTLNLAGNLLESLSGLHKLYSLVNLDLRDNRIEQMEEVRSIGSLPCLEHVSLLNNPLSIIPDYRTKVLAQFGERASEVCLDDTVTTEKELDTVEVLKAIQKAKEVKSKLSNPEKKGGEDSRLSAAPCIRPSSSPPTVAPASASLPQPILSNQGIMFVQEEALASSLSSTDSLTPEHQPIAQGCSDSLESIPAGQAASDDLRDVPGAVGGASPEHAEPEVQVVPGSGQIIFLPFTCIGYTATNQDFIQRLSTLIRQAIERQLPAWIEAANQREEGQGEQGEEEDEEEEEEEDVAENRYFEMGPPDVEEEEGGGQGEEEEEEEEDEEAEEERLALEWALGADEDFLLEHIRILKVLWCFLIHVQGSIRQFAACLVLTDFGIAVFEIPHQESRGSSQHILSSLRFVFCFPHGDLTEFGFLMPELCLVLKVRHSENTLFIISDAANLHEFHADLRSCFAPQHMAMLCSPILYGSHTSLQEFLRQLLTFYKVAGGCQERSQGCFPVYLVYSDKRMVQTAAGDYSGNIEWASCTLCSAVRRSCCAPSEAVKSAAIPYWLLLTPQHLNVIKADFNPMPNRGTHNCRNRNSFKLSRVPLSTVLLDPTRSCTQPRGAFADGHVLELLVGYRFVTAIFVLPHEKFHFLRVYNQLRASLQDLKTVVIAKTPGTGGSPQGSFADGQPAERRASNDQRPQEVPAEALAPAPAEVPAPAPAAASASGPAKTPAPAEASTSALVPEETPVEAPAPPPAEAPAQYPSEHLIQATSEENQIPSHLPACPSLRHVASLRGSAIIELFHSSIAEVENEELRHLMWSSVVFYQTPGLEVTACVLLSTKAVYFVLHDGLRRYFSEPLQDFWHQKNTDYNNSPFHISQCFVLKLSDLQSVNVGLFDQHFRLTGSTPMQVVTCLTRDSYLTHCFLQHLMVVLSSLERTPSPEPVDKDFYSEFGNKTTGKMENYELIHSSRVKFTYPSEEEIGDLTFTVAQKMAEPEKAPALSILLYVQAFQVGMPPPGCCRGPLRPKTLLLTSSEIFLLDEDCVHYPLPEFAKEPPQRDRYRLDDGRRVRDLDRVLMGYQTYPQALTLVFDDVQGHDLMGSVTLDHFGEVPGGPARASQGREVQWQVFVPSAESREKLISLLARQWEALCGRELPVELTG

[8] = molecular target: Aurora kinase A (Homo sapiens) (UniProt O14965); assay: Selectivity interaction (KinomeScan (DiscoverX)) EUB0000294b STK6; conditions: at 1 µM
Chain of Aurora kinase A (Homo sapiens) (O14965 whole entry): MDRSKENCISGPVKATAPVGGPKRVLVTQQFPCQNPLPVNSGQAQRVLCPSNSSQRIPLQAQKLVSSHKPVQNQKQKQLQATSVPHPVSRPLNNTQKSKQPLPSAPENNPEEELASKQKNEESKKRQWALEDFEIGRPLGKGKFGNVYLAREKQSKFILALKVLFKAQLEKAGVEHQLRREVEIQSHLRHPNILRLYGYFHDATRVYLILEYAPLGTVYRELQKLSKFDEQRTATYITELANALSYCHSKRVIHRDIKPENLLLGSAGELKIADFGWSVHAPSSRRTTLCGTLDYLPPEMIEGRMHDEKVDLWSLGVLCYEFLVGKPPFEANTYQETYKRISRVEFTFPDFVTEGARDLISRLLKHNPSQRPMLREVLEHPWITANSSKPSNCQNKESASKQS

[9] = molecular target: NT-3 growth factor receptor (Homo sapiens, UniProt Q16288); assay: Selectivity interaction (KinomeScan (DiscoverX)) EUB0000294b NTRK3; conditions: at 1 µM
Chain of NT-3 growth factor receptor (Q16288 32-839 limits assumed): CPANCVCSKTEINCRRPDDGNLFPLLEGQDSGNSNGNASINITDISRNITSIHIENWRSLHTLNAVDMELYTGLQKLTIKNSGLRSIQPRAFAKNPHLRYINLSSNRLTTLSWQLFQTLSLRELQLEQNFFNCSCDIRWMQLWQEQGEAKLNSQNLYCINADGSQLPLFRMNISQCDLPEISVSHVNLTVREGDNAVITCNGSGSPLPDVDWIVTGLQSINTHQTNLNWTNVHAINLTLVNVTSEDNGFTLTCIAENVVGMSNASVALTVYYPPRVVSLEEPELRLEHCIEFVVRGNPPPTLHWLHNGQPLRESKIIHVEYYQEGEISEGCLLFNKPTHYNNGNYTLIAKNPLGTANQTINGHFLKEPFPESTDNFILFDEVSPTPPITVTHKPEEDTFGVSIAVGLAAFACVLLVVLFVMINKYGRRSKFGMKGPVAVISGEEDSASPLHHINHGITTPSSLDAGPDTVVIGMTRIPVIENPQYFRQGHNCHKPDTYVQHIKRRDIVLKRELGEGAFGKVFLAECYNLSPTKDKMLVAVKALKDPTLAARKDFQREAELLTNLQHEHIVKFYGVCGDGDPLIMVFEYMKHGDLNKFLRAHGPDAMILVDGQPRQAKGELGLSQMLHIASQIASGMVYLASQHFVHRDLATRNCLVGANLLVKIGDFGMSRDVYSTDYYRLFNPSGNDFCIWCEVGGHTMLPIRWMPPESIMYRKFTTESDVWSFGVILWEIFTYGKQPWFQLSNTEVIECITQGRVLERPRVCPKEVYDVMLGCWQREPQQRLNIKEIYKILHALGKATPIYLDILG

[10] = molecular target: T3, Dual specificity mitogen-activated protein kinase kinase 5 (Homo sapiens) (UniProt Q13163); assay: Selectivity interaction (KinomeScan (DiscoverX)) EUB0000294b MAP2K5; conditions: at 1 µM
T3 sequence (whole entry): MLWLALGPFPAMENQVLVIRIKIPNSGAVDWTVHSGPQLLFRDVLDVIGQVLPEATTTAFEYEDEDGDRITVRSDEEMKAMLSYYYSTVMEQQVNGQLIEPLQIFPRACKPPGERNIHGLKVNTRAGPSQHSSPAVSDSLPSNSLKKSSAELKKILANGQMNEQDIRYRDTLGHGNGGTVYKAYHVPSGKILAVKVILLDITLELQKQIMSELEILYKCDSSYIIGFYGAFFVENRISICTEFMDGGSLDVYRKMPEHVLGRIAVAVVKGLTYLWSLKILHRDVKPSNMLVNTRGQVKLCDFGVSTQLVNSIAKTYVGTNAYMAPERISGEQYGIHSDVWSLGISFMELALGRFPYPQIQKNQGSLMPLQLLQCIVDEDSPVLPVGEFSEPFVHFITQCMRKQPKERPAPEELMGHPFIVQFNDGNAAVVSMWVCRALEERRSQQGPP

[11] = molecular target: Dual specificity tyrosine-phosphorylation-regulated kinase 1B (Homo sapiens, UniProt Q9Y463); assay: Selectivity interaction (KinomeScan (DiscoverX)) EUB0000738a DYRK1B; conditions: at 1 µM
[12] = molecular target: T4, Phosphatidylinositol 5-phosphate 4-kinase type-2 beta (Homo sapiens) (UniProt P78356); assay: Selectivity interaction (KinomeScan (DiscoverX)) EUB0000738a PIP4K2B; conditions: at 1 µM
T4 sequence (whole entry): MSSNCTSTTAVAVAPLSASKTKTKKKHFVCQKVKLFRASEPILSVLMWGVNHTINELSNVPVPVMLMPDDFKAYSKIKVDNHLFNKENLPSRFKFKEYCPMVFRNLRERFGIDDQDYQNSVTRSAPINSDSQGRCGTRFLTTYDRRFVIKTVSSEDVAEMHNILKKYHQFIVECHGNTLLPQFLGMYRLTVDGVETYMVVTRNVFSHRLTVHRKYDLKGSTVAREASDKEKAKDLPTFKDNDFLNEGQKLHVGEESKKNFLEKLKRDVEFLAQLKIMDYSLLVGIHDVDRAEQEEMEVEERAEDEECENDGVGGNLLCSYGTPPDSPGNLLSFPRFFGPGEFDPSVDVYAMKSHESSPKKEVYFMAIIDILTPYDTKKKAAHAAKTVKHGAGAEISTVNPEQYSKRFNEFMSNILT

[13] = molecular target: Leukocyte tyrosine kinase receptor (Homo sapiens, UniProt P29376); assay: Selectivity interaction (KinomeScan (DiscoverX)) EUB0000250b LTK; conditions: at 1 µM
Chain of Leukocyte tyrosine kinase receptor (P29376 whole entry): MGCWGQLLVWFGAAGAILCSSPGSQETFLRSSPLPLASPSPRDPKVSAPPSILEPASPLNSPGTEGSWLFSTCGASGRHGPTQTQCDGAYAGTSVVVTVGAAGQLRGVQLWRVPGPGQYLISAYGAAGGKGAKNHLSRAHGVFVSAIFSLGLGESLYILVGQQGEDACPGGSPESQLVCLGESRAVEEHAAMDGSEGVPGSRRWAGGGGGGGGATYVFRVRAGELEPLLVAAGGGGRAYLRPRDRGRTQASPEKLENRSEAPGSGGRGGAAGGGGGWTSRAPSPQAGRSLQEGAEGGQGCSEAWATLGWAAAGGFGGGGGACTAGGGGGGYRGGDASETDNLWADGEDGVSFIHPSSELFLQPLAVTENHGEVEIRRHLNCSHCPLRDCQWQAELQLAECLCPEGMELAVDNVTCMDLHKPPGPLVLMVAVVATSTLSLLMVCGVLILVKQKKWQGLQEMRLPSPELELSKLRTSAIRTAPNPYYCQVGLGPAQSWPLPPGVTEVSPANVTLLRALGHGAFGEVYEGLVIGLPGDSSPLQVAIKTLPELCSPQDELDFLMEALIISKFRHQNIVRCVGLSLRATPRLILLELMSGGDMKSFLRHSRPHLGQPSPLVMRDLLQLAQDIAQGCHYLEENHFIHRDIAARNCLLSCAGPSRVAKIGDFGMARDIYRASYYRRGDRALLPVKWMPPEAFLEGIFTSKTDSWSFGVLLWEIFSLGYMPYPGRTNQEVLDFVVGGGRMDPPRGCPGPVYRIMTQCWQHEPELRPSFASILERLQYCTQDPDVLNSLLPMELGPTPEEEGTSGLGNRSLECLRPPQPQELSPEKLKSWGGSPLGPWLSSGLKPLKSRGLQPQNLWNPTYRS

[14] = molecular target: T5, Ephrin type-B receptor 6 (Homo sapiens) (UniProt O15197); assay: Selectivity interaction (KinomeScan (Eurofins)) EUB0000250b EPHB6; conditions: at 1 µM
T5 sequence (whole entry): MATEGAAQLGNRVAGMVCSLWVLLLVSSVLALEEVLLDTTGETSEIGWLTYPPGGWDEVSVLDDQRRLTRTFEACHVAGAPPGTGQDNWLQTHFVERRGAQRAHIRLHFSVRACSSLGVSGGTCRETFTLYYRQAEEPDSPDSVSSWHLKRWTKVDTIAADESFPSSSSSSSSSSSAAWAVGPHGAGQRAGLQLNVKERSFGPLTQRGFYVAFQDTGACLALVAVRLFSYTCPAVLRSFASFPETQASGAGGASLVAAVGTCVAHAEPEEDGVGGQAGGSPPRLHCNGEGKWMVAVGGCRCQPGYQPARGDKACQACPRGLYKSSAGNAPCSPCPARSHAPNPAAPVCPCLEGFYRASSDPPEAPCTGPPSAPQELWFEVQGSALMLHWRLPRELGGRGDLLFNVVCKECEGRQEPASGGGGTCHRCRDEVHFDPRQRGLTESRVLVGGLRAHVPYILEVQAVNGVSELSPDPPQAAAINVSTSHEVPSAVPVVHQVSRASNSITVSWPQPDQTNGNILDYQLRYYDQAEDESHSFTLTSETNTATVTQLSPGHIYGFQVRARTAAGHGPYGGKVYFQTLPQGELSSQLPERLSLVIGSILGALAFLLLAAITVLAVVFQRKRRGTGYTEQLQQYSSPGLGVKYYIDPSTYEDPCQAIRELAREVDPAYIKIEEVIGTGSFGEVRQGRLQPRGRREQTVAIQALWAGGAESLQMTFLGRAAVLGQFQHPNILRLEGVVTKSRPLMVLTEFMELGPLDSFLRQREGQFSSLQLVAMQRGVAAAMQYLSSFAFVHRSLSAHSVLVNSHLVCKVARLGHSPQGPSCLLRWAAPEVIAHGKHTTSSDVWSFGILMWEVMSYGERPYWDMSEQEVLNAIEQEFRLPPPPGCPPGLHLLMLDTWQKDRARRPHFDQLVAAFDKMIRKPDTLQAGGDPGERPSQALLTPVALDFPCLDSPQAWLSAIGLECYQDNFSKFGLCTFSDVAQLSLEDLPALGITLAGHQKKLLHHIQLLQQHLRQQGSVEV

[15] = molecular target: Ephrin type-B receptor 3 (Homo sapiens) (UniProt P54753); assay: Selectivity interaction (KinomeScan (Eurofins)) EUB0000250b EPHB3; conditions: at 1 µM
[16] = molecular target: Epidermal growth factor receptor (Homo sapiens, UniProt P00533); assay: Selectivity interaction (KinomeScan (DiscoverX)) EUB0000250b EGFR; conditions: at 1 µM
[17] = molecular target: Tyrosine-protein kinase Fer (Homo sapiens, UniProt P16591); assay: Selectivity interaction (KinomeScan (Eurofins)) EUB0000250b FER; conditions: at 1 µM
Chain of Tyrosine-protein kinase Fer (P16591 whole entry, looked up): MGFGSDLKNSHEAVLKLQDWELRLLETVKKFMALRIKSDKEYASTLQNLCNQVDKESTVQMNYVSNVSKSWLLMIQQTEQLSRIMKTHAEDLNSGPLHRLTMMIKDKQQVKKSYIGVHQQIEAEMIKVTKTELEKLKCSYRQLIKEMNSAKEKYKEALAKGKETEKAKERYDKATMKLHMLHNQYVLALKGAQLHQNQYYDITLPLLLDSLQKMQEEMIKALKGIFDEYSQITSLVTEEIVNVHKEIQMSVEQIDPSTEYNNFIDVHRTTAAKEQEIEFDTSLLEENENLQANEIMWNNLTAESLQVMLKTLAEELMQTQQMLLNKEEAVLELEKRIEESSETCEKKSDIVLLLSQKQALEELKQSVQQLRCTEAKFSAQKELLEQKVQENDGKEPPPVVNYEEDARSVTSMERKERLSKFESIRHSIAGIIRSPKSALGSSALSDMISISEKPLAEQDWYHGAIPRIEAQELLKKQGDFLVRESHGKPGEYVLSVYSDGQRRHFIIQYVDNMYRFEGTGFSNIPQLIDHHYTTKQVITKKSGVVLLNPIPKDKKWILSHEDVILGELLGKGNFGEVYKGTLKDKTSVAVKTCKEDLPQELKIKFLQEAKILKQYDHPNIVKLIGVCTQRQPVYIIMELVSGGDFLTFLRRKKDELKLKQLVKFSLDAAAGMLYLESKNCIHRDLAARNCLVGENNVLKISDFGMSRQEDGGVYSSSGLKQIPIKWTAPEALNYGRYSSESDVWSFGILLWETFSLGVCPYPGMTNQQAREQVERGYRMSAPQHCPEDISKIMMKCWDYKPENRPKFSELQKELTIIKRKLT

[18] = molecular target: Ephrin type-A receptor 5 (Homo sapiens) (UniProt P54756); assay: Selectivity interaction (KinomeScan (Eurofins)) EUB0000250b EPHA5; conditions: at 1 µM
[19] = molecular target: Kappa-type opioid receptor (Homo sapiens, UniProt P41145); assay: Selectivity interaction (SafetyScreen44™ (Eurofins, ion channels, GPCRs, hydrolases, and other enzymes)) EUB0000282b OPRK1; conditions: at 10 µM

- % of control [1]: 33%
Compound: O=C(Nc1cnc(Oc2ccc(F)cc2)nc1)N1CCc2ncccc2[C@@H]1c1ccc(F)cc1

- % of inhibition [6]: 77%
- % of control [7]: 48%
- % of inhibition (Nischarin (Homo sapiens)): 19%
- % of control [8]: 43%
- % of control [9]: 32%
- % of control [10]: 16%
Compound: CCC(=O)N[C@H]1CC[C@@H](C(=O)N(C)c2ccc(-c3nc4ccccc4o3)cc2)C1

- % of control [11]: 36%
- % of control [12]: 45%
Compound: CCC(=O)N[C@@H]1CC[C@H](C(=O)N(C)c2ccc(-c3nc4ccccc4o3)cc2)C1

More lines, now with the values behind:

Compound: O=C(NCc1ncc(C(F)(F)F)cc1Cl)c1ccc2c(c1)C1(CCS(=O)(=O)CC1)[C@H](C1CC1)N2S(=O)(=O)c1ccc(F)cc1
- % of control [2]: 0%
- % of control [3]: 0%
- % of control [4]: 39%
- % of control [5]: 0%

Compound: CN1CCN(c2cnc3c(C4CCN(C(=O)c5ccc(OC(F)(F)F)cc5N)CC4)ncnc3c2)CC1
- % of control [13]: 49%
- % of control [14]: 18%
- % of control [15]: 42%
- % of control [16]: 38%
- % of control [17]: 38%
- % of control [18]: 57%

Compound: O=C(NCc1ccc(F)cc1)C1CCN(S(=O)(=O)c2cc(Cl)cc(Cl)c2)CC1
- % of control [19]: 19%
